Experimental data reported in US20180099950A1, “APOPTOSIS SIGNAL-REGULATING KINASE INHIBITOR” (Gilead Sciences, Inc., priority 2012, published 2018).
Where two headings read alike, the source gives them in different places.

Legend:
[1] = Determination of percent of compound bound to plasma (equilibrium dialysis); assay type: in vitro ADME; conditions: human
Text: Sample vials were weighed and recorded.

CYP3A4 = target: T1, CYP3A4 (Homo sapiens, UniProt P08684); experiment: Cytochrome P450 inhibition, CYP3A4 (midazolam and testosterone); assay type: in vitro ADME
T1 construct: from tissue; host or cells: human liver microsomes
T1 sequence (P08684 whole entry): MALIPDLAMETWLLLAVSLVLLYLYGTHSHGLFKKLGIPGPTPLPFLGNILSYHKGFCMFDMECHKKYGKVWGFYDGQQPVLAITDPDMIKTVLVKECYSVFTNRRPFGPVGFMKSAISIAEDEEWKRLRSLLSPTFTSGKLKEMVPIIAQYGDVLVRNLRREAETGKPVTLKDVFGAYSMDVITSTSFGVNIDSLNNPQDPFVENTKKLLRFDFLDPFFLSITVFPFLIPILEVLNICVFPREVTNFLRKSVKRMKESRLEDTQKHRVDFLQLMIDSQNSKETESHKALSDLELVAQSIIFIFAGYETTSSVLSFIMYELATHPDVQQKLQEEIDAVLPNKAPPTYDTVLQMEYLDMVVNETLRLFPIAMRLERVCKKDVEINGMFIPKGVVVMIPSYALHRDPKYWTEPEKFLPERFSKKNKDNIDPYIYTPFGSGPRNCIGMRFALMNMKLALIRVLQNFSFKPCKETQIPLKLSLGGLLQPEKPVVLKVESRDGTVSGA

[2] = Rat pharmacokinetics, 1 mg/kg IV infusion and 5.0 mg/kg PO; assay type: in vivo
Method: Pharmacokinetics of Test Compounds following a 1 mg/kg IV infusion and 5.0 mg/kg PO dose in rats
For IV administration the test compound was formulated in 60:40 PEG 400:water with 1 equivalent HCl at 0.5 mg/mL. […] For PO (oral) administration, the test compound was formulated in 5/75/10/10 ethanol/PG/solutol/water at 2.5 mg/mL.
IV and PO dosing groups each consisted of 3 male SD rats. […] The animals were fasted overnight prior to dose administration and up to 4 hr after dosing.
For the IV infusion group, the test compound was administered by intravenous infusion over 30 minutes. The rate of infusion was adjusted according to the body weight of each animal to deliver a dose of 1 mg/kg at 2 mL/kg. For the oral dosing group, the test article was administered by oral gavage at 2 mL/kg for a dose of 5.0 mg/kg.
Serial venous blood samples (approximately 0.4 mL each) were taken at specified time points after dosing from each animal. The blood samples were collected into Vacutainer™ tubes (Becton-Disckinson Corp, N.J., USA) containing EDTA as the anti-coagulant and were immediately placed on wet ice pending centrifugation for plasma.
An LC/MS/MS method was used to measure the concentration of test compound in plasma.
Non-compartmental pharmacokinetic analysis was performed on the plasma concentration-time data.

[3] = pH 7.4, fraction unbound, comparative table, read-out: fu

Row | fraction unbound at 3 h, 2 μM [1, 3] | CYP3A4 IC50/PBAdj.EC50 value of compound of formula (I) higher than that of the named compound (CYP3A4) [times] | number of times the compound of formula (I) shows an improvement over the indicated compound: Cyp3A4 IC50 (TST) (CYP3A4) | number of times the compound of formula (I) shows an improvement over the indicated compound: % F in rats ([2]; rat, in vivo) | number of times the compound of formula (I) shows an improvement over the indicated compound: CL in rats ([2]; rat, in vivo) | number of times the compound of formula (I) shows an improvement over the indicated compound: Vss in rats ([2]; rat, in vivo) | number of times the compound of formula (I) shows an improvement over the indicated compound: t½ in rats ([2]; rat, in vivo) | t½ ([2]; rats) [min] | IC50 (CYP3A4; testosterone substrate, comparative table, read-out: Cyp3A4 IC50 Testesterone (TST))) [µM] | clearance ([2]; male, SD, rat, plasma, intravenous, 1 mg/kg, rats) [mL/min/kg] | Vd ([2]; male, SD, rat, plasma, intravenous, 1 mg/kg, rats, read-out: Vss) [L/kg] | bioavailability ([2]; male, SD, rat, plasma, rats, 5.0 mg/kg PO, read-out: oral bioavailability (% F)) [%] | half-life ([2]; male, SD, rat, plasma, rats, read-out: t½ (converted)) [min] | fraction unbound at 3 h, 2 μM ([1]; pH 7.4, human plasma, 2 uM, 3 hours at 37 C, read-out: percent unbound) | Structure (SMILES)
1 | 0.048 | 43 | (10X) | (6.8X) | (2.7X) | (3.2X) | (8.6X) | 35.4 |  |  |  |  |  |  | CC(C)n1cnnc1-c1cccc(NC(=O)c2cccc(-n3cnc(C4CC4)c3)c2)n1 [Compound A]
2 | 0.032 | 92 | (2.8X) | (1.5X) | (3.6X) |  | (3.9X) |  | 4 | 6.5 | 0.54 | 50 | 78 |  | Cc1ccc(C(=O)Nc2cccc(-c3nncn3C(C)C)n2)cc1-n1cnc(C2CC2)c1 [Compound B]
3 | 0.12 |  |  |  |  |  |  |  |  |  |  |  |  | 0.119 | Cc1cc(F)c(C(=O)Nc2cccc(-c3nncn3C(C)C)n2)cc1-n1cnc(C2CC2)c1 [compound of formula (I), 5-(4-cyclopropyl-1H-imidazol-1-yl)—N-(6-(4-isopropyl-4H-1,2,4-triazol-3-yl)pyridin-2-yl)-2-fluoro-4-methylbenzamide]
